According to US11173151B2, “Substituted triazole derivatives and uses thereof” (BAYER AKTIENGESELLSCHAFT, priority 2017, dated 2021):

Legend:
human V1a receptor = molecular target: T1, human V1a receptor (Homo sapiens, UniProt P37288); test: Cellular in vitro assay for determining vasopressin receptor activity, V1a receptor cell line (CHO, aequorin luminescence); type: cell-based; conditions: for IC50: CHO cell line transfected with human V1a receptor, [Arg]-vasopressin at EC50 concentration, read-out: IC50 hV1a; for ratio IC50 hV2/hV1a: selectivity ratio IC50 hV2 / IC50 hV1a
T1 construct: expressed in transfected cells; host or cells: CHO K1 (ATCC), also stably transfected with a modified aequorin
T1 sequence (P37288 whole entry): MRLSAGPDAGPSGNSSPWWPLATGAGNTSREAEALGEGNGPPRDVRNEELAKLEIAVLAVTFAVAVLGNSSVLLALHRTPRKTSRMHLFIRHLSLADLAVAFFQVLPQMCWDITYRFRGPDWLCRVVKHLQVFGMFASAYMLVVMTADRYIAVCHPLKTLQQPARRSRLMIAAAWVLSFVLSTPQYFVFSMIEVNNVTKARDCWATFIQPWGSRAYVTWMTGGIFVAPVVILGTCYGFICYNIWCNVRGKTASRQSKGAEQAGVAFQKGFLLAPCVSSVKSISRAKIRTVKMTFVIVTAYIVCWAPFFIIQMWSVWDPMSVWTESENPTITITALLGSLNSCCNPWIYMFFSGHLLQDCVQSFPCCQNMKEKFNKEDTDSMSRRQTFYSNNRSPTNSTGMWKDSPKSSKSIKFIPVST
Summary of the method: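 Cells were plated the day before in medium containing 5 μg/ml coelenterazine and kept at 37° C. Compounds at various concentrations were then added for 10 minutes. Next, [Arg]-vasopressin at EC50 was applied and light output recorded at once, yielding IC50.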

human V2 receptor = molecular target: T2, human V2 receptor (Homo sapiens, UniProt P30518); test: Cellular in vitro assay for determining vasopressin receptor activity, V2 receptor cell line (CHO, CRE-luciferase); type: cell-based; conditions: CHO cell line transfected with human V2 receptor; [Arg8]-vasopressin at EC50 concentration; read-out: IC50 hV2
T2 construct: expressed in transfected cells; host or cells: CHO K1 (ATCC) expressing firefly luciferase under a CRE-responsive promoter
T2 sequence (P30518 whole entry): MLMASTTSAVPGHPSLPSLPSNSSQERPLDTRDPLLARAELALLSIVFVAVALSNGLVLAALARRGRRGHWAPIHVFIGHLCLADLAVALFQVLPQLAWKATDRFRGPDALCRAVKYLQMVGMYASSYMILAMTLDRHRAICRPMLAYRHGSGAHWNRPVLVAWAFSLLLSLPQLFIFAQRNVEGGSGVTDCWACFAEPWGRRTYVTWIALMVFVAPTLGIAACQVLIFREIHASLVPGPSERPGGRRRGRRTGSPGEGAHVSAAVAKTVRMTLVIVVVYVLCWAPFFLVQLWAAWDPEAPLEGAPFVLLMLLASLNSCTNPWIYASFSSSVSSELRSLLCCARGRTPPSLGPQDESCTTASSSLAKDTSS

## O=C(NCCC(F)(F)F)c1ccncc1-n1nc(Cn2nc(-c3ccc(Cl)cc3)n(C[C@H](O)C(F)(F)F)c2=O)nc1C(=O)N1CCS(=O)(=O)CC1 [Example 519, 3-{3-({3-(4-Chlorophenyl)-5-oxo-4-[(2S)-3,3,3-trifluoro-2-hydroxypropyl]-4,5-dihydro-1H-1,2,4-triazol-1-yl}methyl)-5-[(1,1-dioxidothiomorpholin-4-yl)carbonyl]-1H-1,2,4-triazol-1-yl}-N-(3,3,3-trifluoropropyl)pyridine-4-carboxamide]
Human V1a receptor
  IC50: 1350 nM
  ratio IC50 hV2/hV1a: 0.7
Human V2 receptor
  IC50: 925 nM

## O=C(NC1CC1)c1ccncc1-n1nc(Cn2nc(-c3ccc(Cl)cc3)n(C[C@H](O)C(F)(F)F)c2=O)nc1C(=O)N1CCS(=O)(=O)CC1 [Example 520, 3-{3-({3-(4-Chlorophenyl)-5-oxo-4-[(2S)-3,3,3-trifluoro-2-hydroxypropyl]-4,5-dihydro-1H-1,2,4-triazol-1-yl}methyl)-5-[(1,1-dioxidothiomorpholin-4-yl)carbonyl]-1H-1,2,4-triazol-1-yl}-N-cyclopropylpyridine-4-carboxamide]
Human V1a receptor
  IC50: 295 nM
  ratio IC50 hV2/hV1a: 2.3
Human V2 receptor
  IC50: 665 nM

## CC1(NC(=O)c2ccncc2-n2nc(Cn3nc(-c4ccc(Cl)cc4)n(C[C@H](O)C(F)(F)F)c3=O)nc2C(=O)N2CCS(=O)(=O)CC2)CC1 [Example 521, 3-{3-({3-(4-Chlorophenyl)-5-oxo-4-[(2S)-3,3,3-trifluoro-2-hydroxypropyl]-4,5-dihydro-1H-1,2,4-triazol-1-yl}methyl)-5-[(1,1-dioxidothiomorpholin-4-yl)carbonyl]-1H-1,2,4-triazol-1-yl}-N-(1-methylcyclopropyl)pyridine-4-carboxamide]
Human V1a receptor
  IC50: 6250 nM
  ratio IC50 hV2/hV1a: 0.1
Human V2 receptor
  IC50: 885 nM

## O=C1CN(C(=O)c2nc(Cn3nc(-c4ccc(Cl)cc4)n(C[C@H](O)C(F)(F)F)c3=O)nn2-c2ncccc2C(=O)NCC(F)(F)F)CCN1 [Example 524, 2-{3-({3-(4-Chlorophenyl)-5-oxo-4-[(2S)-3,3,3-trifluoro-2-hydroxypropyl]-4,5-dihydro-1H-1,2,4-triazol-1-yl}methyl)-5-[(3-oxopiperazin-1-yl)carbonyl]-1H-1,2,4-triazol-1-yl}-N-(2,2,2-trifluoroethyl)pyridine-3-carboxamide]
Human V1a receptor
  IC50: 4650 nM
  ratio IC50 hV2/hV1a: 0.7
Human V2 receptor
  IC50: 3450 nM

## CC1(NC(=O)c2cccnc2-n2nc(Cn3nc(-c4ccc(Cl)cc4)n(C[C@H](O)C(F)(F)F)c3=O)nc2C(=O)N2CCNC(=O)C2)CC1 [Example 525, 2-{3-({3-(4-Chlorophenyl)-5-oxo-4-[(2S)-3,3,3-trifluoro-2-hydroxypropyl]-4,5-dihydro-1H-1,2,4-triazol-1-yl}methyl)-5-[(3-oxopiperazin-1-yl)carbonyl]-1H-1,2,4-triazol-1-yl}-N-(1-methylcyclopropyl)pyridine-3-carboxamide]
Human V1a receptor
  IC50: 9400 nM
  ratio IC50 hV2/hV1a: 0.7
Human V2 receptor
  IC50: 6550 nM

## O=C(NCC(F)(F)F)c1cccnc1-n1nc(Cn2nc(-c3ccc(Cl)cc3)n(C[C@H](O)C(F)(F)F)c2=O)nc1C(=O)N1CCS(=O)(=O)CC1 [Example 528, 2-{3-({3-(4-Chlorophenyl)-5-oxo-4-[(2S)-3,3,3-trifluoro-2-hydroxypropyl]-4,5-dihydro-1H-1,2,4-triazol-1-yl}methyl)-5-[(1,1-dioxidothiomorpholin-4-yl)carbonyl]-1H-1,2,4-triazol-1-yl}-N-(2,2,2-trifluoroethyl)pyridine-3-carboxamide]
Human V1a receptor
  IC50: 75.5 nM
  ratio IC50 hV2/hV1a: 10.3
Human V2 receptor
  IC50: 780 nM

## O=C(NCCC(F)(F)F)c1cccnc1-n1nc(Cn2nc(-c3ccc(Cl)cc3)n(C[C@H](O)C(F)(F)F)c2=O)nc1C(=O)N1CCS(=O)(=O)CC1 [Example 529, 2-{3-({3-(4-Chlorophenyl)-5-oxo-4-[(2S)-3,3,3-trifluoro-2-hydroxypropyl]-4,5-dihydro-1H-1,2,4-triazol-1-yl}methyl)-5-[(1,1-dioxidothiomorpholin-4-yl)carbonyl]-1H-1,2,4-triazol-1-yl}-N-(3,3,3-trifluoropropyl)pyridine-3-carboxamide]
Human V1a receptor
  IC50: 97.5 nM
  ratio IC50 hV2/hV1a: 29.7
Human V2 receptor
  IC50: 2900 nM
